According to article PMC4605843, “Cell-Penetrating Peptides Selectively Cross the Blood-Brain Barrier In Vivo” (PLoS ONE, 2015):
Like-named read-outs stand apart in the source and are kept apart here. Ends that are not written are not given here.

How the values were obtained:
[1] = test system: brain; settings: cited from earlier work; for Kin: rat, in vivo
[2] = test system: brain; settings: cited from earlier work
[3] = test system: brain; settings: mouse, in vivo; cited from earlier work
[4] = test system: blood-brain barrier (BBB); assay: Multiple time regression (MTR) analysis, blood-to-brain influx; format: in vivo, ICR-CD-1 mice
Procedure: Shortly, 200 μl of the radioiodinated CPP solution (30000 cpm/μl) was injected into the right jugular externalis vein of anesthetized ICR-CD-1 mice, which were then decapitated at 1, 3, 5, 10, 12.5 and 15 min post injection, with first and last time points performed in duplicate, after which brains were collected and measured for radioactivity using a gamma counter (Wallac Wizard 1470, Perkin Elmer). Shortly before decapitation, blood was collected from the left carotid artery, which was centrifuged (10000 g, 15 min at 21°C) in order to measure the radioactivity of blood and serum. Dermorphin and radioiodinated BSA were used as positive and negative control, respectively. The blood-to-brain entry during the experimental period of 15 min was evaluated by plotting the ratio of brain (Am(T)) and serum activity (Cp(T)), corrected for the brain weight and serum volume, respectively, versus the exposure time (Θ), expressing the theoretical steady state serum level of the iodinated peptide at a given serum concentration [37, 73]. The exposure time is calculated as the integral of the arterial serum radioactivity over time divided by the radioactivity at time t. The integral is calculated through the trapezoidal rule of the log-transformed data [73]. In the linear part of the curve, assuming a two-compartmental BBB model, data can be fitted using a linear model from which the unidirectional influx rate (Kin), also referred to as unidirectional blood to brain clearance K1 [46], and the initial brain distribution volume (Vi) can be determined using the following equation according to Gjedde and Patlak [37–40]: Am(T)/Cp(T)=Abrain(T)/Aserum(T)=Kin⋅Θ+Vi with Θ = ∫0TCp(t) ⋅ dt/Cp(T) (1)

[5] = test system: blood-brain barrier (BBB); assay: Regional variation in brain influx (MTR, dissected brain regions)
Procedure: The protocol of the multiple time regression (MTR) analysis to evaluate whether the peptides cross the BBB is described in detail elsewhere. […] Dermorphin and radioiodinated BSA were used as positive and negative control, respectively. […] The exposure time is calculated as the integral of the arterial serum radioactivity over time divided by the radioactivity at time t. The integral is calculated through the trapezoidal rule of the log-transformed data. In the linear part of the curve, assuming a two-compartmental BBB model, data can be fitted using a linear model from which the unidirectional influx rate (Kin), also referred to as unidirectional blood to brain clearance K1 [46], and the initial brain distribution volume (Vi) can be determined using the following equation according to Gjedde and Patlak: Am(T)/Cp(T)=Abrain(T)/Aserum(T)=Kin⋅Θ+Vi with Θ = ∫0TCp(t) ⋅ dt/Cp(T) (1)
Different dissected brain regions were weighed and measured in the gamma counter. The unidirectional influx and initial distribution volume of the iodinated peptides for the different brain regions are determined using Eq 1.
Generally, regression lines were computed using the least squares method. Regression lines of the ratio of the brain-to-serum radioactivity versus the exposure time obtained during the evaluation of the regional brain distribution and the used brain influx mechanism, were statistically compared using the Prism 6 software (GraphPad, La Jolla, USA).

[6] = 15 min post IV injection of radiolabeled peptide, % injected dose, n = 2, ICR-CD-1 mice; described in words
[7] = test system: brain parenchyma and capillaries; assay: Capillary depletion method: brain parenchyma/capillary distribution; format: in vivo, ICR-CD-1 mice; settings: mouse, in vivo, iv
Procedure: The capillary depletion method was used to evaluate the distribution of the peptide between the brain parenchyma and capillaries. In summary (see Materials and Methods in [45]), 200 μl of a radiolabeled peptide solution (10000 cpm/μl) was injected in the jugular externalis vein of two anesthetized ICR-CD-1 mice. Ten minutes after IV injection, mice were decapitated and brains were collected and measured for radioactivity. […] The resulting homogenate was weighed and centrifuged at 5400 g for 30 min at 4°C, resulting in a pellet, i.e. capillaries, and supernatant, i.e. parenchyma and fat tissue, which were weighed and measured in the gamma counter. […] Compartmental distribution was calculated as follows: Fractioncapillaries or parenchyma (%)=[…] or parenchyma/[…]×100 (4)

[8] = test system: blood-brain barrier (BBB); assay: Brain-to-blood transport (efflux) after intracerebroventricular injection; settings: mouse; for t1/2,brain (half-time disappearance): in vivo
Procedure: Female, ICR-CD-1 mice (Harlan Laboratories, Venray, The Netherlands), aged 7 to 10 weeks and weighing 28–36 g, were used during the in vivo BBB transport experiments. All animal experiments were performed in accordance with the Ethical Committee principles of laboratory animal welfare. The protocol was approved by the Ethical Committee of the Faculty of Veterinary Science of Ghent University (Permit Numbers: 2009–052 and 2014–128). Prior to experiments, mice were anesthetized by intraperitoneal injection of a 40% urethane solution (3 g/kg) (Sigma-Aldrich, Diegem, Belgium).
For evaluation of the efflux of the peptides out of the brain, 1 μl of a radioiodinated peptide solution (25000 cpm/μl) was injected in the lateral ventricle of anesthetized ICR-CD-1 mice at a speed of 360 μl/h for 10 s using a syringe pump (KDS100, KR analytical, Cheshire, UK). […] The brain half-time disappearance (t1/2,brain) was calculated from the linear regression of the natural logarithm of the residual radioactivity in brain versus time as follows: t1/2,brain=ln(2)/kout (5) with kout defined as the efflux rate constant calculated as the absolute value of the slope of the linear regression, applying first order kinetics. An extensive description of the protocol can be found elsewhere.

[9] = test system: blood-brain barrier (BBB); assay: Saturability of brain influx: MTR with and without excess unlabeled peptide; design: species or system ICR-CD-1 mice; settings: mouse, in vivo, iv
Procedure: This dose of 20 μg was determined based on the amount of peptide injected during a MTR experiment estimated based on the specific activity and taking into account the amount of non-radioactively iodinated peptide present in the injected dose. […] During this experiment, peptides are radiolabeled using a no-carrier added method in order that only radioactively labeled peptide was injected.

[10] = test system: blood-brain barrier (BBB); assay: Classification of peptides according to their BBB influx
From the text: This peptide is derived from the murine vascular endothelial (VE)-cadherin, located in the adherens junctions between the vascular endothelial cells, and constitutes the 13 cytosolic amino acids closest to the membrane and five amino acids from the C-terminus of the transmembrane region (615–632).

[11] = test system: cellular uptake; design: method as in Stalmans et al.[1]; settings: cell-penetrating (CP-) response, quantitative expression of cellular influx; ref Stalmans et al.[1]; cited from earlier work
[12] = test system: BBB; settings: after i.p. injection, fluorimetry; ref [41] of S1 Table; cited from earlier work
From the text: page 6: Supplementary Information S1 Table.

[13] = activity of the 68Ga-DOTA labeled peptide; ref [49]; cited from earlier work
From the text: For pVEC and Tat 47–57, a very high liver concentration was observed compared to the other tissues, which can indicate metabolization, but also uptake of the peptides and their metabolites in hepatocytes.

[14] = 125I-radioiodinated, IV, ICR-CD-1 mice, MTR 1-15 min, ± 65% confidence limits

CC1(C)S[C@@H]2[C@H](NC(=O)Cc3ccccc3)C(=O)N2[C@H]1C(=O)O [Benzylpenicillin]
Kin [1]: 0.15 µL/s/g

COc1cccc2c1C(=O)c1c(O)c3c(c(O)c1C2=O)C[C@@](O)(C(=O)CO)C[C@@H]3O[C@H]1C[C@H](N)[C@H](O)[C@H](C)O1 [Doxorubicin]
Kin [1]: 0.25 µL/s/g | Vd ([2]; mouse, in vivo): < 100 µL/g

CN1CC[C@]23c4c5ccc(O)c4O[C@H]2[C@@H](O[C@@H]2O[C@H](C(=O)O)[C@@H](O)[C@H](O)[C@H]2O)C=C[C@H]3[C@H]1C5 [Morphine-6-glucuronide]
Kin ([2]; in situ brain perfusion in mice, ref [6] of S1 Table): 0.024 µL/s/g

CC(C)c1nc(CN(C)C(=O)N[C@H](C(=O)N[C@@H](Cc2ccccc2)C[C@H](O)[C@H](Cc2ccccc2)NC(=O)OCc2cncs2)C(C)C)cs1 [Ritonavir]
Brain drug level [3]: 0.1 µg/g

Dalargin
Vd ([1]; in situ brain perfusion (single time) in rats, ref [2] of S1 Table): 16.7 µL/g

Dermorphin [reference compound]
Kin (unidirectional influx rate), linear Gjedde-Patlak model ([4]; 125I-radioiodinated peptide, IV jugular vein 200 μl (30000 cpm/μl), anesthetized female ICR-CD-1 mice, 1-15 min, brain/serum radioactivity (gamma counter) vs exposure time, whole brain, ± 65% confidence limits, pVEC, SynB3, TP10: two experiments fitted together): 0.63 ± 0.10 µL/g/min | Vi (initial brain distribution volume), linear Gjedde-Patlak model ([4]; 125I-radioiodinated, IV, ICR-CD-1 mice, MTR 1-15 min, whole brain, ± 65% confidence limits): 13.98 ± 0.79 µL/g | K1 (unidirectional clearance, slope of the initial phase), biphasic model [4, 14]: 2.54 ± 0.50 µL/g/min | K (net clearance, slope of the plateau phase), biphasic model [4, 14]: 0.03 ± 0.06 µL/g/min | Vg (tissue brain distribution volume), biphasic model [4, 14]: 13.72 ± 2.17 µL/g | Difference in brain influx rates between the eight dissected brain regions ([5]; comparison of slopes (Kin), Prism 6, P threshold 0.05, ICR-CD-1 mice): no statistically significant difference | Relative tissue distribution [6]: high liver distributions

LLIILRRRIRKQAHAHSK-NH2 [pVEC, cell-penetrating peptide derived from murine VE-cadherin (615–632); tested radioiodinated]
Kin (unidirectional influx rate), linear Gjedde-Patlak model ([4]; mouse, in vivo, iv): 6.02 ± 0.29 µL/g/min | Maximal ratio of brain-to-serum radioactivity ([4]; mouse, in vivo, iv): about 180 μl/g | Parenchymal fraction [7]: 80% | kout (efflux transfer constant) [8]: 0.10 ± 0.11 min⁻¹ | Difference in brain influx rates between the eight dissected brain regions ([5]; mouse, in vivo): significantly differed | Kin, cerebellum ([5]; mouse, in vivo, iv): 5.61 [5.12, 6.10] μl/(g × min) | Kin, frontal cortex ([5]; mouse, in vivo, iv): 4.84 [4.66, 5.02] μl/(g × min) | Kin, hippocampus ([5]; mouse, in vivo, iv): 3.94 [3.51, 4.37] μl/(g × min) | Kin, midbrain ([5]; mouse, in vivo, iv): 5.32 [5.17, 5.46] μl/(g × min) | Kin, occipital and parietal cortex ([5]; mouse, in vivo, iv): 5.03 [4.73, 5.32] μl/(g × min) | Kin, pons medulla ([5]; mouse, in vivo, iv): 4.51 [3.87, 5.15] μl/(g × min) | Kin, striatum ([5]; mouse, in vivo, iv): 4.07 [3.77, 4.37] μl/(g × min) | Kin, thalamus and hypothalamus ([5]; mouse, in vivo, iv): 4.12 [3.86, 4.38] μl/(g × min) | Kin, whole brain ([5]; mouse, in vivo, iv): 6.04 [5.78, 6.30] μl/(g × min) | Vi, cerebellum ([5]; mouse, in vivo, iv): 21.02 [15.09, 26.95] μl/g | Vi, frontal cortex ([5]; mouse, in vivo, iv): 12.93 [10.77, 15.09] μl/g | Vi, hippocampus ([5]; mouse, in vivo, iv): 9.33 [4.13, 14.54] μl/g | Vi, midbrain ([5]; mouse, in vivo, iv): 13.88 [12.15, 15.62] μl/g | Vi, occipital and parietal cortex ([5]; mouse, in vivo, iv): 16.61 [13.02, 20.19] μl/g | Vi, pons medulla ([5]; mouse, in vivo, iv): 36.06 [28.34, 43.78] μl/g | Vi, striatum ([5]; mouse, in vivo, iv): 11.47 [7.81, 15.13] μl/g | Vi, thalamus and hypothalamus ([5]; mouse, in vivo, iv): 17.72 [11.58, 17.86] μl/g | Vi, whole brain ([5]; mouse, in vivo, iv): 24.37 [21.23, 27.51] μl/g | Vi with excess dose of unlabeled peptide [9]: 1 µL/g | BBB influx class [10]: class 5 | CP-response [11]: 1.318

RRLSYSRRRF-NH2 [SynB3, short cationic cell-penetrating peptide]
K1 (unidirectional clearance, slope of the initial phase), biphasic model ([4]; mouse, in vivo, iv): 29.84 ± 8.42 µL/g/min | Kin (unidirectional influx rate), linear Gjedde-Patlak model ([4]; mouse, in vivo, iv): 5.63 ± 1.83 µL/g/min | Maximal ratio of brain-to-serum radioactivity ([4]; mouse, in vivo, iv): about 70 μl/g | Parenchymal fraction [7]: 77% | kout (efflux transfer constant) [8]: 0.05 ± 0.01 min⁻¹ | t1/2,brain (half-time disappearance) [8]: 15 min | Difference in brain influx rates between the eight dissected brain regions ([5]; mouse, in vivo): no statistically significant difference | BBB influx class [10]: class 5 | CP-response [11]: 0.126

TP10
CP-response [11]: 1.641

VIP: cargo peptide VIP alone
Brain uptake efficiency [12]: 0.78

YGRKKRRQRRR-NH2 [Tat 47–57, short cationic cell-penetrating peptide]
K1 (unidirectional clearance, slope of the initial phase), biphasic model [4, 14]: 13.50 ± 3.88 µL/g/min | K (net clearance, slope of the plateau phase), biphasic model ([4]; mouse, in vivo, iv): 0.27 ± 0.46 µL/g/min | Kin (unidirectional influx rate), linear Gjedde-Patlak model ([4]; mouse, in vivo, iv): 4.73 ± 1.23 µL/g/min | Parenchymal fraction [7]: 79% | kout (efflux transfer constant) [8]: 0.21 ± 0.08 min⁻¹ | t1/2,brain (half-time disappearance) [8]: 3 min | BBB influx class [10]: class 5 | CP-response [11]: 0.309

^68Ga-DOTA labeled pVEC: 68Ga-DOTA labeled pVEC of a literature study (TLLIILRRRIRKQAHAHS; also: 68Ga-DOTA label (site not given here); UniProt P55284 615-632, looked up, fragment)
(human) serum half-life [13]: a few hours
